target: T1, Recombinant human HSD17B13 enzyme (Homo sapiens, UniProt Q7Z5P4); assay: HSD17b13 NAD(P)H-Glo biochemical assay; details: 50 μM estradiol, 1 mM NAD+, 37° C. for 3 hours; read-out: HSD17β13 IC50
T1 sequence (Q7Z5P4 20-300): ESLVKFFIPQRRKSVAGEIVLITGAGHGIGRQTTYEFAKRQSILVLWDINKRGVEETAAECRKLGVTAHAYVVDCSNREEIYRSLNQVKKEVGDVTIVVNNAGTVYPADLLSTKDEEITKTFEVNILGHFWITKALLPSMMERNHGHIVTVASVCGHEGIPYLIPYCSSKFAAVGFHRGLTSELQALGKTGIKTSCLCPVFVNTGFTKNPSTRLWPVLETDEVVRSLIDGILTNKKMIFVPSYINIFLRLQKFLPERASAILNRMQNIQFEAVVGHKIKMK
Experimental: Example B-1: HSD17b13 NAD (P) H-Glo Biochemical Assay
Recombinant human HSD17B13 enzyme. Substrate: estradiol (Sigma β-Estradiol E8875), 100 mM in DMSO. Cofactor: NAD+ Grade I free acid (Sigma 10127965001), 20 mM in H2O. Assay buffer final concentration: 20 mM Tris pH7.4 with 0.002% Tween-20 and 0.02% BSA. Assay performed in 384 well solid bottom plate (Corning 3570). Enzymatic activity detected by NAD (P) H-Glo™ Detection System (Promega G9062).
Inhibitor compounds were serially diluted in DMSO and then further diluted in assay buffer to a 10× concentration consisting of 1% DMSO.
HSD17b13 enzyme was diluted in 1× assay buffer to the desired enzyme concentration based on the specific activity of the enzyme lot. 20 μL of diluted enzyme was added to each well along with 2.5 μL of 10× inhibitor solution. Assay plate was incubated at RT for 20 minutes, and then 2.5 μL of a 10× substrate/cofactor mix was added to each well for a final concentration of 50 μM estradiol and 1 mM NAD+. Assay plate was incubated at 37° C. for 3 hours. NAD (P) H-Glo™ Detection System reagents were prepared according to manufacturer's specifications, and 25 μL was added to each well. After incubating for 1 hour at RT, luminescence was measured.

Row | IC50 [nM] | SMILES
1 | ≤ 100 | Cc1nn(-c2ccc(F)c(O)c2F)c2cnc(N3CCN(S(C)(=O)=O)C[C@H]3Cc3ccccc3)cc12 [Compound 2.15, (R)-3-(5-(2-Benzyl-4-(methylsulfonyl)piperazin-1-yl)-3-methyl-1H-pyrazolo[3,4-c]pyridin-1-yl)-2,6-difluorophenol]
2 | ≤ 100 | Cc1nn(-c2ccc(Cl)c(O)c2F)c2cnc(N3CCN(S(C)(=O)=O)C[C@H]3Cc3ccccc3)cc12 [Compound 2.16, (R)-3-(5-(2-Benzyl-4-(methylsulfonyl)piperazin-1-yl)-3-methyl-1H-pyrazolo[3,4-c]pyridin-1-yl)-6-chloro-2-fluorophenol]
3 | 100 to 1000 | Cc1nn(-c2ncc(Cl)c(O)c2F)c2cnc(N3CCN(S(C)(=O)=O)C[C@H]3Cc3ccccc3)cc12 [Compound 2.17, (R)-2-(5-(2-Benzyl-4-(methylsulfonyl)piperazin-1-yl)-3-methyl-1H-pyrazolo[3,4-c]pyridin-1-yl)-5-chloro-3-fluoropyridin-4-ol]
4 | ≤ 100 | CS(=O)(=O)N1CCN(c2ncc3c(n2)c(Cl)nn3-c2cc(C(F)(F)F)c(F)c(O)c2F)[C@H](Cc2ccccc2)C1 [Compound 2.18, (R)-3-(5-(2-Benzyl-4-(methylsulfonyl)piperazin-1-yl)-3-chloro-1H-pyrazolo[4,3-d]pyrimidin-1-yl)-2,6-difluoro-5-(trifluoromethyl)phenol]
5 | ≤ 100 | CS(=O)(=O)N1CCN(c2cc3cnn(-c4cc(C(F)(F)F)c(F)c(O)c4F)c3cn2)[C@H](Cc2ccccc2)C1 [Compound 2.19, (R)-3-(5-(2-Benzyl-4-(methylsulfonyl)piperazin-1-yl)-1H-pyrazolo[3,4-c]pyridin-1-yl)-2,6-difluoro-5-(trifluoromethyl)phenol]
6 | ≤ 100 | CS(=O)(=O)N1CCN(c2cc3c(Cl)nn(-c4cc(C(F)(F)F)c(F)c(O)c4F)c3cn2)[C@H](Cc2ccccc2)C1 [Compound 2.20, (R)-3-(5-(2-Benzyl-4-(methylsulfonyl)piperazin-1-yl)-3-chloro-1H-pyrazolo[3,4-c]pyridin-1-yl)-2,6-difluoro-5-(trifluoromethyl)phenol]
7 | ≤ 100 | Cc1nn(-c2cc(C(F)(F)F)c(Cl)c(O)c2F)c2cnc(N3CCN(S(C)(=O)=O)C[C@H]3Cc3ccccc3)nc12 [Compound 2.21, (R)-3-(5-(2-Benzyl-4-(methylsulfonyl)piperazin-1-yl)-3-methyl-1H-pyrazolo[4,3-d]pyrimidin-1-yl)-6-chloro-2-fluoro-5-(trifluoromethyl)phenol]
8 | ≤ 100 | CS(=O)(=O)N1CCN(c2cc3c(Cl)nn(-c4cc(C(F)(F)F)c(Cl)c(O)c4F)c3cn2)[C@H](Cc2ccccc2)C1 [Compound 2.22, (R)-3-(5-(2-Benzyl-4-(methylsulfonyl)piperazin-1-yl)-3-chloro-1H-pyrazolo[3,4-c]pyridin-1-yl)-6-chloro-2-fluoro-5-(trifluoromethyl)phenol]
9 | ≤ 100 | CS(=O)(=O)N1CCN(c2cc3c(N)nn(-c4cc(C(F)(F)F)c(F)c(O)c4F)c3cn2)[C@H](Cc2ccccc2)C1 [Compound 2.23, (R)-3-(3-Amino-5-(2-benzyl-4-(methylsulfonyl)piperazin-1-l)-1H-pyrazolo[3,4-c]pyridin-1-yl)-2,6-difluoro-5-(trifluoromethyl)phenol]
10 | ≤ 100 | CNc1nn(-c2cc(C(F)(F)F)c(F)c(O)c2F)c2cnc(N3CCN(S(C)(=O)=O)C[C@H]3Cc3ccccc3)cc12 [Compound 2.24, (R)-3-(5-(2-Benzyl-4-(methylsulfonyl)piperazin-1-yl)-3-(methylamino)-1H-pyrazolo[3,4-c]pyridin-1-yl)-2,6-difluoro-5-(trifluoromethyl)phenol]
11 | ≤ 100 | CN(C)c1nn(-c2cc(C(F)(F)F)c(F)c(O)c2F)c2ccc(N3CCN(S(C)(=O)=O)C[C@H]3Cc3ccccc3)cc12 [Compound 2.25, (R)-3-(5-(2-Benzyl-4-(methylsulfonyl)piperazin-1-yl)-3-(dimethylamino)-1H-indazol-1-yl)-2,6-difluoro-5-(trifluoromethyl)phenol]
